According to ChEMBL document CHEMBL1146919, “Triazolo-tetrahydrofluorenones as selective estrogen receptor beta agonists” (Bioorg Med Chem Lett, 2006):

How the values were obtained:
Estrogen receptor [1] = biological target: T1, Estrogen receptor (Homo sapiens, UniProt P03372)
T1 sequence (P03372 whole entry): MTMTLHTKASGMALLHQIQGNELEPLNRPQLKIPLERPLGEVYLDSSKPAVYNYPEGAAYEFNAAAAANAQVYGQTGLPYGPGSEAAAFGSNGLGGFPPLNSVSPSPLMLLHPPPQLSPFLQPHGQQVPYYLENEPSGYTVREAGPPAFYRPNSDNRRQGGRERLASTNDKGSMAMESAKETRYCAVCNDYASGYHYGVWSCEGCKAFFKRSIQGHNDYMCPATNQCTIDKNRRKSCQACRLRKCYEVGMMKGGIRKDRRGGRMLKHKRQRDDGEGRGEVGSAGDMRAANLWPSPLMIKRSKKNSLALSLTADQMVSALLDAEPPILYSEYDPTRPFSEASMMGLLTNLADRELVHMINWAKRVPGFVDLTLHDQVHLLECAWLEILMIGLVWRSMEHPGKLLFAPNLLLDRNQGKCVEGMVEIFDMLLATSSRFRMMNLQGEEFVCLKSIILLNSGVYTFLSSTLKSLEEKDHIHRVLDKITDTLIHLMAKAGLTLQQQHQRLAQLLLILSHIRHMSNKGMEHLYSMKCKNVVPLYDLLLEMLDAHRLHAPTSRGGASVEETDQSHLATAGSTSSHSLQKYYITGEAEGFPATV
Description: Binding affinity to human recombinant ERalpha by scintillation proximity assay

Estrogen receptor beta [2] = biological target: T2, Estrogen receptor beta (Homo sapiens, UniProt Q92731)
Description: Binding affinity to human recombinant ERbeta by scintillation proximity assay

Estrogen receptor [3] = biological target: T1, Estrogen receptor; remark: listed apart in the source
Description: Agonist activity at human recombinant ERalpha expressed in HEK293 cells by alkaline phosphatase reporter gene transactivation assay

Estrogen receptor beta [4] = biological target: T2, Estrogen receptor beta; remark: listed apart in the source
Description: Agonist activity at human recombinant ERbeta expressed in HEK293 cells by alkaline phosphatase reporter gene transactivation assay

[5] = Plasma clearance in Sprague-Dawley rat at 1 mg/kg, iv and 2 mg/kg, po; format: ADME, organism-based
[6] = Half life in Sprague-Dawley rat at 1 mg/kg, iv and 2 mg/kg, po; format: ADME, organism-based; conditions: in vivo
[7] = Bioavailability in Sprague-Dawley rat at 1 mg/kg, iv and 2 mg/kg, po; format: ADME, organism-based; conditions: in vivo
[8] = AUC in Sprague-Dawley rat at 1 mg/kg, iv; format: ADME, organism-based; set-up: dose 1 mg/kg, route intravenous; conditions: plasma

T2 sequence (Q92731 whole entry): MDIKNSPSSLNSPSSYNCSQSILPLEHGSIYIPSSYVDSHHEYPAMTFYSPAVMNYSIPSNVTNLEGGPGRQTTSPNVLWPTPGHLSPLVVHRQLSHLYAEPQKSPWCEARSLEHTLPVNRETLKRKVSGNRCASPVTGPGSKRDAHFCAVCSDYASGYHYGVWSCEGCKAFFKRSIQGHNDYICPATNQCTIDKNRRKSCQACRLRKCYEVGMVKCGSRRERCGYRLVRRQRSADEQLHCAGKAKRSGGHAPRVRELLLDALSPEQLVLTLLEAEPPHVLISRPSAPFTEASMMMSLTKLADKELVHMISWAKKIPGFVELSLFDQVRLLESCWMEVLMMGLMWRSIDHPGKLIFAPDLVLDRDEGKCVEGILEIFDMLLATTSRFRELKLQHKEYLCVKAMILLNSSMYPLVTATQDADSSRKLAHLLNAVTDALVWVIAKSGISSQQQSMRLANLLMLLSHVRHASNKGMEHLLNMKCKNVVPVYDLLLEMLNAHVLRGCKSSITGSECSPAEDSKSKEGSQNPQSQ

SMILES | IC50 (Estrogen receptor [1]) | IC50 (Estrogen receptor beta [2]) | EC50 (Estrogen receptor [3]) | EC50 (Estrogen receptor beta [4]) | clearance [5] | half-life [6] | bioavailability [7] | AUC [8]
CCCC1=C2c3ccc4nn[nH]c4c3CC2(CC)CCC1=O (stereo not given) | 352 nM | 11 nM | 794 nM | 14 nM | – | – | – | –
CCCC[C@@]12CCC(=O)C(C(F)(F)F)=C1c1ccc3[nH]nnc3c1C2 | 896 nM | 3.2 nM | 169 nM | 2.3 nM | – | – | – | –
CCC12CCC(=O)C(C)=C1c1ccc3[nH]nnc3c1C2 (stereo not given) | 1900 nM | 24 nM | 671 nM | 20 nM | – | – | – | –
CCCCC12CCC(=O)C(C)=C1c1ccc3[nH]nnc3c1C2 (stereo not given) | 5980 nM | 27 nM | – | 20 nM | – | – | – | –
CCC1=C2c3ccc4[nH]nnc4c3CC2(CC)CCC1=O (stereo not given) | 1320 nM | 18 nM | 460 nM | 7.3 nM | – | – | – | –
CCCC[C@@]12CCC(=O)C(c3cccs3)=C1c1ccc3nn[nH]c3c1C2 | 34 nM | 2.3 nM | 79 nM | 0.96 nM | – | – | – | –
CCCC12CCC(=O)C(C)=C1c1ccc3nn[nH]c3c1C2 (stereo not given) | 6170 nM | 81 nM | 449 nM | 17 nM | – | – | – | –
CCCC[C@@]12CCC(=O)C(CC)=C1c1ccc3nn[nH]c3c1C2 | 220 nM | 5.1 nM | 30 nM | 0.4 nM | 62 mL/min/kg | 0.4 h | 28% | 0.9 µM·h
CCC12CCC(=O)C=C1c1ccc3nn[nH]c3c1C2 (stereo not given) | > 10000 nM | 3040 nM | 1230 nM | 475 nM | – | – | – | –
CCC12CCC(=O)C(Br)=C1c1ccc3nn[nH]c3c1C2 (stereo not given) | 5170 nM | 60 nM | 1270 nM | 46 nM | – | – | – | –
CCCC[C@]12CCC(=O)C(CC)=C1c1ccc3[nH]nnc3c1C2 | 4750 nM | 242 nM | 391 nM | 28 nM | 18.3 mL/min/kg | 1.2 h | 99% | 3 µM·h
CCCCC1=C2c3ccc4[nH]nnc4c3CC2(CC)CCC1=O (stereo not given) | 1130 nM | 43 nM | 681 nM | 60 nM | – | – | – | –
CCCC12CCC(=O)C(CC)=C1c1ccc3[nH]nnc3c1C2 (stereo not given) | 612 nM | 18 nM | 120 nM | 7.7 nM | – | – | – | –
CCCCC12CCC(=O)C(Br)=C1c1ccc3nn[nH]c3c1C2 (racemic) | 141 nM | 1.8 nM | 94 nM | 4 nM | 102 mL/min/kg | 1.5 h | 0% | 0.5 µM·h
CCCCC12CCC(=O)C(c3ccco3)=C1c1ccc3[nH]nnc3c1C2 (stereo not given) | 1120 nM | 7.4 nM | 870 nM | 6.5 nM | – | – | – | –
CCCC[C@@]12CCC(=O)C(Br)=C1c1ccc3[nH]nnc3c1C2 | 1910 nM | 5.7 nM | 519 nM | 5.5 nM | 24.4 mL/min/kg | 2.9 h | 36% | 1.9 µM·h
CCCCC12CCC(=O)C(CCC)=C1c1ccc3[nH]nnc3c1C2 (stereo not given) | 1250 nM | 58 nM | 1180 nM | 96 nM | – | – | – | –
CCC1=C2c3ccc4[nH]nnc4c3C[C@@]2(CC)CCC1=O | > 10000 nM | 1520 nM | – | – | – | – | – | –
CCCC1=C2c3ccc4[nH]nnc4c3CC2(CCC)CCC1=O (stereo not given) | 344 nM | 23 nM | – | – | – | – | – | –
CCC1=C2c3ccc4[nH]nnc4c3C[C@]2(CC)CCC1=O | 647 nM | 5.7 nM | 140 nM | 5.8 nM | 64.8 mL/min/kg | 0.3 h | 70% | 1 µM·h
CCCC12CCC(=O)C(Br)=C1c1ccc3nn[nH]c3c1C2 (stereo not given) | 3300 nM | 43 nM | 561 nM | 18 nM | – | – | – | –
CCC12CCC(=O)C(c3ccc(O)cc3)=C1c1ccc3[nH]nnc3c1C2 (stereo not given) | 81 nM | 11 nM | 901 nM | 4.3 nM | – | – | – | –
CCCCC12CCC(=O)C(CC)=C1c1ccc3[nH]nnc3c1C2 (racemic) | – | – | – | – | 31.6 mL/min/kg | 2.9 h | 85% | 1.7 µM·h
CC[C@@]12CCC(=O)C(C(F)(F)F)=C1c1ccc3nn[nH]c3c1C2 | 1680 nM | 11 nM | 241 nM | 4.9 nM | 108 mL/min/kg | 0.4 h | 59% | 0.6 µM·h
